Experimental data taken from patent US20250115572A1, “SPIROCYCLIC PIPERIDINYL DERIVATIVES AS COMPLEMENT FACTOR B INHIBITORS AND USES THEREOF” (Novartis AG, priority 2022, published 2025).

Biological target: Recombinant human factor B (Homo sapiens (Human), UniProt P00751)
Assay: Human Complement Factor B TR-FRET Assay
Assay type: binding
Conditions: displacement of labeled factor B ligand; * = assay behavior at and above the stated concentration prevented IC50 determination; read-out: hFactor-B TR-FRET Qualified IC50
Description: The time-gated decrease in fluorescence intensity related to the competition between labeled and unlabeled factor B ligands was recorded at both 620 nm and 665 nm, 70 μs after excitation at 337 nm using a microplate spectrofluorimeter.

Chain of Recombinant human factor B (P00751 26-764): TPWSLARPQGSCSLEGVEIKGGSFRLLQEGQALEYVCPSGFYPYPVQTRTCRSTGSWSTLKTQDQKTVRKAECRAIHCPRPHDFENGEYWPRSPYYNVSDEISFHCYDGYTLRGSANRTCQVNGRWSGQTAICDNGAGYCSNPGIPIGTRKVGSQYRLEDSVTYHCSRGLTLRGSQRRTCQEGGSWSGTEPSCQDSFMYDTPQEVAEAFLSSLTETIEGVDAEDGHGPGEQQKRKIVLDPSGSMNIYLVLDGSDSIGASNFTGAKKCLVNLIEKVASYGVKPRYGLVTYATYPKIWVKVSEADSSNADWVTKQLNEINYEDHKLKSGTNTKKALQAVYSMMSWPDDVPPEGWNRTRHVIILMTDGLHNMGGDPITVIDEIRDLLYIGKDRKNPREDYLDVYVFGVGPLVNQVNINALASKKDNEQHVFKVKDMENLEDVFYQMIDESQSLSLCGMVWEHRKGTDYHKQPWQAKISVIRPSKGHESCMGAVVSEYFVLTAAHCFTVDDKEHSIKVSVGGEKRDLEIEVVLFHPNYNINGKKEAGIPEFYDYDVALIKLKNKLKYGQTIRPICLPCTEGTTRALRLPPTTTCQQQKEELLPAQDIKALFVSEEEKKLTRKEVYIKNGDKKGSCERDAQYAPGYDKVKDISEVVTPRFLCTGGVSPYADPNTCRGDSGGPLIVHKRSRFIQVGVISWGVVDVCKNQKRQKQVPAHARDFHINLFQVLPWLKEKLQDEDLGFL

Q: `COc1cc(C)c2[nH]ccc2c1CN1CCC2(CC1c1cnn(C)c1)CC(F)(F)C2` (racemic) [Ex-36] was tested. Which IC50 did it give?
A: Its IC50 is 24.5 nM.

Q: With `Cc1cc(C2CC2)c(CN2CCC3(C[C@@H]2c2ccc(-c4nnn[nH]4)cc2)CC(F)(F)C3)c2cc[nH]c12` (single isomer, unassigned) [Ex-34] as the compound, how does the IC50 read?
A: The IC50 was 124 nM.

Q: How did the IC50 turn out when `Cc1cc(C2CC2)c(CN2CCC3(CC2c2ccc(-c4nnn[nH]4)cc2)CC(F)(F)C3)c2cc[nH]c12` (racemic) [Ex-57, 6-(4-(1H-tetrazol-5-yl)phenyl)-7-((5-cyclopropyl-7-methyl-1H-indol-4-yl)methyl)-2,2-difluoro-7-azaspiro[3.5]nonane] was run?
A: Its IC50 is 5 nM.

Q: Which IC50 does the source give for `Cc1cc(C2CC2)c(CN2CCC3(C[C@H]2c2ccc(C(=O)O)cc2)CC(F)(F)C3)c2cc[nH]c12` [Ex-21, (S)-4-(7-((5-cyclopropyl-7-methyl-1H-indol-4-yl)methyl)-2,2-difluoro-7-azaspiro[3.5]nonan-6-yl)benzoic acid] here?
A: The IC50 was 1.4 nM.

Q: For `COCCn1cc([C@H]2CC3(CCN2Cc2c(OC)cc(C)c4[nH]ccc24)CC(F)(F)C3)cn1` (single isomer, unassigned) [Ex-43], which IC50 is on record?
A: Its IC50 is 2790 nM.

Q: Which IC50 does the source give for `Cc1cc(C2CC2)c(CN2CCC3(C[C@H]2c2ccc(-n4cccn4)cc2)CC(F)(F)C3)c2cc[nH]c12` (single isomer, unassigned) [Ex-31] here?
A: The IC50 was 3.8 nM.

Q: For `COc1cc(C)c2[nH]ccc2c1CN1CCC2(C[C@@H]1c1ccc(-c3nnn[nH]3)nc1)CC(F)(F)C2` (single isomer, unassigned) [Ex-60], which IC50 is on record?
A: The IC50 was 152 nM.

Q: Which IC50 does the source give for `COc1cc(C)c2[nH]ccc2c1CN1CCC2(C[C@H]1c1ccc(C(=O)O)cc1)CC(C)(F)C2` (single isomer, unassigned) [Ex-1] here?
A: The IC50 was 0.5 nM.

Q: How did the IC50 turn out when `Cc1cc(C2CC2)c(CN2CCC3(C[C@@H]2c2ccc(C(=O)O)nc2)CC(F)(F)C3)c2cc[nH]c12` [Ex-67] was run?
A: Its IC50 is 337 nM.

Q: `COc1cc(C)c2[nH]ccc2c1CN1CCC2(CC1c1ccccc1)CC(F)(F)C2` (racemic) [Ex-35] was tested. Which IC50 did it give?
A: Its IC50 is 17.3 nM.

Q: Which IC50 does the source give for `Cc1cc(C2CC2)c(CN2CCC3(C[C@H]2c2ccc(C4(O)COC4)cc2)CC(F)(F)C3)c2cc[nH]c12` (single isomer, unassigned) [Ex-25] here?
A: Its IC50 is 4 nM.

Q: How did the IC50 turn out when `COc1cc(C)c2[nH]ccc2c1CN1CCC2(C[C@H]1c1ccc(C(=O)O)cc1)CC(C)(F)C2` (single isomer, unassigned) [Ex-3] was run?
A: Its IC50 is 40.7 nM.

Q: Which IC50 does the source give for `Cc1cc(C2CC2)c(CN2CCC3(C[C@@H]2c2ccc(-n4cccn4)cc2)CC(F)(F)C3)c2cc[nH]c12` (single isomer, unassigned) [Ex-32] here?
A: Its IC50 is > 400 nM.

Q: How did the IC50 turn out when `Cc1ccc(CN2CCC3(C[C@H]2c2ccc(C(=O)O)cc2)CC(F)(F)C3)c2cc[nH]c12` [Ex-53] was run?
A: Its IC50 is 7.7 nM.

Q: With `Cc1cc(C2CC2(F)F)c(CN2CCC3(C[C@H]2c2ccc(C(=O)O)cc2)CC(F)(F)C3)c2cc[nH]c12` (single isomer, unassigned) [Ex-23] as the compound, how does the IC50 read?
A: The IC50 was 8.9 nM.

Q: For `Cc1cc(C2CC2)c(CN2CCC3(CC2c2ccc(C(C)(C)O)cc2)CC(F)(F)C3)c2cc[nH]c12` (racemic) [Ex-48], which IC50 is on record?
A: Its IC50 is 8.9 nM.

Q: For `Cc1cc(C2CC2)c(CN2CCC3(CC2c2ccc(-n4cccn4)cc2)CC(F)(F)C3)c2cc[nH]c12` (racemic) [Ex-50], which IC50 is on record?
A: The IC50 was 7 nM.

Q: Which IC50 does the source give for `COc1cc(C)c2[nH]ccc2c1CN1CCC2(COC2)C[C@H]1c1ccc(C(=O)O)cc1` [Ex-11] here?
A: Its IC50 is 5.8 nM.

Q: `COc1cc(C)c2[nH]ccc2c1CN1CCC2(C[C@@H]1c1cnn(C)c1)CC(F)(F)C2` (single isomer, unassigned) [Ex-40] was tested. Which IC50 did it give?
A: Its IC50 is 864 nM.

Q: How did the IC50 turn out when `COc1cc(C)c2[nH]ccc2c1CN1CCC2(C[C@H]1c1ccc(C(=O)O)nc1)CC(F)(F)C2` [Ex-64] was run?
A: The IC50 was 2.1 nM.

Q: Which IC50 does the source give for `Cc1cc(C2CC2)c(CN2CCC3(CC2c2ccc(-c4ccn[nH]4)cc2)CC(F)(F)C3)c2cc[nH]c12` (racemic) [Ex-51] here?
A: The IC50 was 4.2 nM.

Q: For `COc1cc(C)c2[nH]ccc2c1CN1CCC2(CC1c1ccc(C(=O)O)cc1)CC(C)(O)C2` (racemic) [Ex-13], which IC50 is on record?
A: The IC50 was 29.4 nM.

Q: Which IC50 does the source give for `Cc1cc(C)c2[nH]ccc2c1CN1CCC2(C[C@H]1c1ccc(C(=O)O)cc1)CC(F)(F)C2` [Ex-22] here?
A: Its IC50 is 2.4 nM.

Q: For `Cc1cc(C2CC2)c(CN2CCC3(CC2c2ccc(C4(O)COC4)cc2)CC(F)(F)C3)c2cc[nH]c12` (racemic) [Ex-49, 3-(4-(7-((5-cyclopropyl-7-methyl-1H-indol-4-yl)methyl)-2,2-difluoro-7-azaspiro[3.5]nonan-6-yl)phenyl)oxetan-3-ol], which IC50 is on record?
A: The IC50 was 5.6 nM.

Q: For `COc1cc(C)c2[nH]ccc2c1CN1CCC2(C[C@H]1c1cnn(C(F)F)c1)CC(F)(F)C2` (single isomer, unassigned) [Ex-41], which IC50 is on record?
A: The IC50 was 9.6 nM.

Q: Which IC50 does the source give for `COc1cc(C)c2[nH]ccc2c1CN1CCC2(CC(F)C2)C[C@@H]1c1ccc(C(=O)O)cc1` (single isomer, unassigned) [Ex-8] here?
A: Its IC50 is 227 nM.

Q: `COc1cc(C)c2[nH]ccc2c1CN1CCC2(C[C@@H]1c1ccc(C(=O)O)nc1)CC(F)(F)C2` [Ex-65] was tested. Which IC50 did it give?
A: Its IC50 is 235 nM.

Q: `Cc1cc(C2CC2)c(CN2CCC3(C[C@@H]2c2ccc(C4(O)COC4)cc2)CC(F)(F)C3)c2cc[nH]c12` (single isomer, unassigned) [Ex-26] was tested. Which IC50 did it give?
A: Its IC50 is > 400 nM.

Q: Which IC50 does the source give for `Cc1cc(C)c2[nH]ccc2c1CN1CCC2(C[C@@H]1c1ccc(C(=O)O)nc1)CC(F)(F)C2` [Ex-69] here?
A: The IC50 was 1230 nM.

Q: For `COc1cc(C)c2[nH]ccc2c1CN1CCC2(C[C@@H]1c1ccc(C(=O)O)cc1)CC(C)(F)C2` (single isomer, unassigned) [Ex-4], which IC50 is on record?
A: The IC50 was 461 nM.

Q: Which IC50 does the source give for `COc1cc(C)c2[nH]ccc2c1CN1CCC2(C[C@@H]1c1cnn(CC(=O)O)c1)CC(F)(F)C2` [Ex-46] here?
A: Its IC50 is 1460 nM.

Q: With `COc1cc(C)c2[nH]ccc2c1CN1CCC2(CC(F)C2)C[C@H]1c1ccc(C(=O)O)cc1` (single isomer, unassigned) [Ex-7] as the compound, how does the IC50 read?
A: Its IC50 is 0.8 nM.

Q: `Cc1cc(C2CC2)c(CN2CCC3(C[C@@H]2c2ccc(C(C)(C)O)cc2)CC(F)(F)C3)c2cc[nH]c12` (single isomer, unassigned) [Ex-28] was tested. Which IC50 did it give?
A: Its IC50 is > 400 nM.

Q: `Cc1cc(C2CC2)c(CN2CCC3(C[C@H]2c2ccc(C(=O)O)nc2)CC(F)(F)C3)c2cc[nH]c12` [Ex-66] was tested. Which IC50 did it give?
A: The IC50 was 2.1 nM.

Q: With `COc1cc(C)c2[nH]ccc2c1CN1CCC2(CC(F)C2)C[C@@H]1c1ccc(C(=O)O)cc1` (single isomer, unassigned) [Ex-10] as the compound, how does the IC50 read?
A: Its IC50 is 242 nM.

Q: How did the IC50 turn out when `COCCn1cc([C@@H]2CC3(CCN2Cc2c(OC)cc(C)c4[nH]ccc24)CC(F)(F)C3)cn1` (single isomer, unassigned) [Ex-44] was run?
A: The IC50 was 9.9 nM.

Q: How did the IC50 turn out when `Cc1cc(C2CC2)c(CN2CCC3(C[C@H]2c2ccc(-c4nnn[nH]4)cc2)CC(F)(F)C3)c2cc[nH]c12` (single isomer, unassigned) [Ex-33] was run?
A: The IC50 was 1.6 nM.

Q: With `COc1cc(C)c2[nH]ccc2c1CN1CCC2(C[C@H]1c1ccc(C(=O)O)cc1)CC2(F)F` (stereo partly shown) [Ex-70] as the compound, how does the IC50 read?
A: The IC50 was 14.7 nM.

Q: With `COc1cc(C)c2[nH]ccc2c1CN1CCC2(C[C@@H]1c1cnn(C(F)F)c1)CC(F)(F)C2` (single isomer, unassigned) [Ex-42] as the compound, how does the IC50 read?
A: The IC50 was 861 nM.

Q: With `Cc1cc(C2CC2)c(CN2CCC3(C[C@H]2c2ccc(-c4ccn[nH]4)cc2)CC(F)(F)C3)c2cc[nH]c12` (single isomer, unassigned) [Ex-29] as the compound, how does the IC50 read?
A: The IC50 was 5.1 nM.

Q: For `Cc1cc(C)c2[nH]ccc2c1CN1CCC2(C[C@H]1c1ccc(C(=O)O)nc1)CC(F)(F)C2` [Ex-68], which IC50 is on record?
A: Its IC50 is 4.5 nM.

Q: For `COc1cc(C)c2[nH]ccc2c1CN1CCC2(C[C@H]1c1ccc(-c3nnn[nH]3)cc1)CC(F)(F)C2` (single isomer, unassigned) [Ex-55], which IC50 is on record?
A: The IC50 was 0.6 nM.

Same assay, conditions: hFactor-B TR-FRET Qualified IC50, displacement of labeled factor B ligand; * = assay behavior at and above the stated concentration prevented IC50 determination

Q: For `COc1cc(C)c2[nH]ccc2c1CN1CCC2(CC1c1ccc(C(=O)O)cc1)CC(F)(F)C2` (racemic) [Ex-47], which IC50 is on record?
A: Its IC50 is 2.5 nM.
